# According to article PMC10460039 (Molecules, 2023):
# Read-outs that look alike come from different tables or passages of the source.
# What was measured:
# tyrosinase [1] = molecular target: T1, tyrosinase (Agaricus bisporus, UniProt C7FF04); assay: Tyrosinase inhibitory activity using L-DOPA as substrate; format: biochemical, mushroom; details: read-out: Inhibition Rate at 64 μM (%)
# Experimental: Compounds c1~c29 were tested for their tyrosinase inhibitory activities according to previous reports. Each compound was dissolved in DMSO and diluted to different concentrations. Tyrosinase and L-DOPA were dissolved in PBS solution (50 mM, pH 6.8). To 140 μL of tyrosinase (final concentration: 66.7 U/mL) solution, 10 μL of compound was added and incubated for 5 min at 25 °C, followed by the addition of 50 µL of L-DOPA (final concentration: 2 mM). Then, absorbance of the mixture was read at 475 nm. The inhibitory activity of each compound was calculated using DMSO as a blank control.
# Target sequence in this assay (C7FF04 2-392): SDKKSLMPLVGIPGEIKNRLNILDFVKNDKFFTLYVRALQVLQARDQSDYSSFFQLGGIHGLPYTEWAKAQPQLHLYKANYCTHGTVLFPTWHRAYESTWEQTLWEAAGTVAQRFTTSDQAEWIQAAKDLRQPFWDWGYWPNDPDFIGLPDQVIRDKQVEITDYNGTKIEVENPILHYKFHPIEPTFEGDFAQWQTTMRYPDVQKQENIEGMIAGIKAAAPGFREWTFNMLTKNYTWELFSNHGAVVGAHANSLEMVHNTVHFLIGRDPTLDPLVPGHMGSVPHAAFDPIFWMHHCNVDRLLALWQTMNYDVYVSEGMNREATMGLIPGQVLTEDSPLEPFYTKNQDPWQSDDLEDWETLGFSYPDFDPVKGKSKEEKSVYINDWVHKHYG
# tyrosinase [2] = molecular target: T1, tyrosinase; assay: Circular dichroism spectra, secondary structure contents of tyrosinase; parameters: purchased Sigma-Aldrich; species or system mushroom
# Experimental: The CD spectra of tyrosinase-compound c27 mixture were measured according to previous reports. To 190 µL of tyrosinase solution (final concentration: 64.65 μM) in PBS, 10 µL of compound c27 (1.28, 2.56, and 3.84 mM) was added and incubated for 5 min. Then, the CD spectra were measured at 195~250 nm at room temperature.
# Target sequence in this assay (C7FF04 1-392): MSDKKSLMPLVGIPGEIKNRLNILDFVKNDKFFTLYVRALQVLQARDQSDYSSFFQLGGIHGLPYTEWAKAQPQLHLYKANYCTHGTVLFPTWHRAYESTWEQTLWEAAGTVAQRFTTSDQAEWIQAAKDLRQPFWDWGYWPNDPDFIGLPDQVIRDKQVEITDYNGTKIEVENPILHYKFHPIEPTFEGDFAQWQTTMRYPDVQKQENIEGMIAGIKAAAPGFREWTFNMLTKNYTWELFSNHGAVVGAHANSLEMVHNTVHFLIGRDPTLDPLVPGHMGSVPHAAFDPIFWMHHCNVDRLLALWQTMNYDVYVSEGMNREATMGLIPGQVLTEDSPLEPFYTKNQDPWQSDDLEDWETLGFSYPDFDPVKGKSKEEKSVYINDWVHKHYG
# tyrosinase [3] = molecular target: T1, tyrosinase; assay: Fluorescence quenching of tyrosinase (Stern–Volmer); format: binding, mushroom; parameters: purchased Sigma-Aldrich
# Experimental: An amount of 1 μL of compound c27 solution was titrated into 2 mL of tyrosinase and incubated for 5 min. […] The quenching mechanism and parameters were investigated by the Stern–Volmer equation.
# Target sequence in this assay (C7FF04 1-392 limits assumed): as the sequence (C7FF04 1-392) above
# tyrosinase [4] = molecular target: T1, tyrosinase; assay: Three-dimensional fluorescence spectra of tyrosinase–compound mixture; parameters: species or system mushroom; details: 3D fluorescence
# Experimental: The 3D fluorescence spectra of tyrosinase-compound c27 mixture was measured according to previous reports. To 3 mL of tyrosinase solution (final concentration: 168 μM) in PBS, 10 µL of compound c27 (2 mM) was added and incubated for 5 min. Then, the 3D fluorescence spectra analyses were conducted in room temperature. The excitation and emission wavelengths were 200–600 nm and the slit width was 2.5 nm.
# Target sequence in this assay (C7FF04 2-392): as the sequence (C7FF04 2-392) above
# tyrosinase [5] = molecular target: T1, tyrosinase; assay: Inhibition kinetic study (enzyme and substrate kinetics, Lineweaver–Burk); format: biochemical, mushroom; details: c27 0~4 μM
# Experimental: The kinetics studies were carried out using the same experimental method as described above. For enzyme kinetics, the absorbance of the mixture containing different concentrations of tyrosinase (final concentration: 66.7 U/mL) and compound c27 (0, 2, 3, and 4 μM) was recorded at 475 nm, respectively. For substrate kinetics, the absorbance of the mixture containing different concentrations of L-DOPA (final concentration: 2, 4, 6 and 8 mM) and compound c27 (0, 2, 3 and 4 μM) was recorded at 475 nm, respectively.
# Target sequence in this assay (C7FF04 2-392): as above
# [6] = compound concentration 64 μM, L-DOPA substrate
smiles,measurement,setting,value
"C=CCc1ccc(OC(=O)/C=C/c2ccccc2C(F)(F)F)c(OC)c1 [c22, 4-allyl-2-methoxyphenyl (E)-3-(2-(trifluoromethyl)phenyl)acrylate]",inhibition at 64 µM,tyrosinase [1]; [6],6 ± 0.5%
"C=CCc1ccc(OC(=O)/C=C/c2ccccc2OC)c(OC)c1 [c19, 4-allyl-2-methoxyphenyl (E)-3-(2-methoxyphenyl)acrylate]",inhibition at 64 µM,tyrosinase [1]; [6],3 ± 0.2%
"C=CCc1ccc(OC(=O)/C=C/c2ccc(Cl)cc2)c(OC)c1 [c7, 4-allyl-2-methoxyphenyl (E)-3-(4-chlorophenyl)acrylate]",inhibition at 64 µM,tyrosinase [1],24 ± 1%
"C=CCc1ccc(OC(=O)C=Cc2ccccc2)c(OC)c1 [c1, 4-allyl-2-methoxyphenyl cinnamate]",inhibition at 64 µM,tyrosinase [1]; [6],12 ± 1%
"C=CCc1ccc(OC(=O)/C=C/c2ccccc2C)c(OC)c1 [c2, 4-allyl-2-methoxyphenyl (E)-3-(o-tolyl)acrylate]",inhibition at 64 µM,tyrosinase [1]; [6],12 ± 0.3%
"C=CCc1ccc(OC(=O)/C=C/c2cccc(C(F)(F)F)c2)c(OC)c1 [c23, 4-allyl-2-methoxyphenyl (E)-3-(3-(trifluoromethyl)phenyl)acrylate]",inhibition at 64 µM,tyrosinase [1]; [6],5 ± 0.2%
"C=CCc1ccc(OC(=O)/C=C/c2ccc(O)c(O)c2)c(OC)c1 [c27, 4-allyl-2-methoxyphenyl (E)-3-(3,4-dihydroxyphenyl)acrylate]",Random Coil (%),tyrosinase [2]; [Tyrosinase]:[c27] 1:1,28.23%
same,α-Helix (%),tyrosinase [2]; [Tyrosinase]:[c27] 1:1,7.12%
same,β-Sheet (%),tyrosinase [2]; [Tyrosinase]:[c27] 1:1,49.00%
same,β-Turn (%),tyrosinase [2]; [Tyrosinase]:[c27] 1:1,17.63%
same,Random Coil (%),tyrosinase [2]; [Tyrosinase]:[c27] 1:2,28.12%
same,α-Helix (%),tyrosinase [2]; [Tyrosinase]:[c27] 1:2,9.56%
same,β-Sheet (%),tyrosinase [2]; [Tyrosinase]:[c27] 1:2,49.23%
same,β-Turn (%),tyrosinase [2]; [Tyrosinase]:[c27] 1:2,18.37%
same,Random Coil (%),tyrosinase [2]; [Tyrosinase]:[c27] 1:3,27.94%
same,α-Helix (%),tyrosinase [2]; [Tyrosinase]:[c27] 1:3,9.85%
same,β-Sheet (%),tyrosinase [2]; [Tyrosinase]:[c27] 1:3,49.27%
same,β-Turn (%),tyrosinase [2]; [Tyrosinase]:[c27] 1:3,18.55%
same,inhibition at 64 µM,tyrosinase [1]; [6],81.5%
same,number of binding sites (in words),tyrosinase [3],one
same,quenching mechanism,tyrosinase [3],static
same,KSV (Stern–Volmer quenching constant),tyrosinase [3]; 304 K,47700 L/mol
same,Kq (quenching rate constant),tyrosinase [3]; 304 K,4.77e+12 L/mol
same,n (number of binding sites),tyrosinase [3]; 304 K,0.59
same,KSV (Stern–Volmer quenching constant),tyrosinase [3]; 307 K,43200 L/mol
same,Kq (quenching rate constant),tyrosinase [3]; 307 K,4.32e+12 L/mol
same,n (number of binding sites),tyrosinase [3]; 307 K,0.86
same,KSV (Stern–Volmer quenching constant),tyrosinase [3]; 310 K,42900 L/mol
same,Kq (quenching rate constant),tyrosinase [3]; 310 K,4.29e+12 L/mol
same,n (number of binding sites),tyrosinase [3]; 310 K,0.99
same,reduction of intensity of peak 1 (λex/λem = 280 nm/340 nm),tyrosinase [4]; Tyr and Trp residues,21.47%
same,reduction of intensity of peak 2 (λex/λem = 230 nm/335 nm),tyrosinase [4]; polypeptide strand transition,32.71%
same,inhibition type,tyrosinase [5]; Lineweaver–Burk plots,mixed-type
same,reversibility of inhibition,tyrosinase [5]; ν versus [E] plots,reversible
"C=CCc1ccc(OC(=O)/C=C/c2ccccc2[N+](=O)[O-])c(OC)c1 [c16, 4-allyl-2-methoxyphenyl (E)-3-(2-nitrophenyl)acrylate]",inhibition at 64 µM,tyrosinase [1]; [6],5 ± 0.1%
"C=CCc1ccc(OC(=O)/C=C/c2ccc(C(F)(F)F)cc2)c(OC)c1 [c24, 4-allyl-2-methoxyphenyl (E)-3-(4-(trifluoromethyl)phenyl)acrylate]",inhibition at 64 µM,tyrosinase [1]; [6],2 ± 0.1%
"C=CCc1ccc(OC(=O)/C=C/c2ccc(O)cc2)c(OC)c1 [c15, 4-allyl-2-methoxyphenyl (E)-3-(4-hydroxyphenyl)acrylate]",inhibition at 64 µM,tyrosinase [1]; [6],76.1%
"C=CCc1ccc(OC(=O)/C=C/c2ccc([N+](=O)[O-])cc2)c(OC)c1 [c18, 4-allyl-2-methoxyphenyl (E)-3-(4-nitrophenyl)acrylate]",inhibition at 64 µM,tyrosinase [1]; [6],14 ± 1%
"C=CCc1ccc(OC(=O)/C=C/c2ccc(Br)cc2)c(OC)c1 [c13, 4-allyl-2-methoxyphenyl (E)-3-(4-bromophenyl)acrylate]",inhibition at 64 µM,tyrosinase [1]; [6],13 ± 1%
"C=CCc1ccc(OC(=O)/C=C/c2ccc(O)c(OC)c2)c(OC)c1 [c26, 4-allyl-2-methoxyphenyl (E)-3-(4-hydroxy-3-methoxyphenyl)acrylate]",inhibition at 64 µM,tyrosinase [1]; [6],47 ± 1%
"C=CCc1ccc(OC(=O)/C=C/c2ccc(N(C)C)cc2)c(OC)c1 [c25, 4-allyl-2-methoxyphenyl (E)-3-(4-(dimethylamino)phenyl)acrylate]",inhibition at 64 µM,tyrosinase [1]; [6],26 ± 1%
"C=CCc1ccc(OC(=O)/C=C/c2ccc(Cl)c(F)c2)c(OC)c1 [c28, 4-allyl-2-methoxyphenyl (E)-3-(4-chloro-3-fluorophenyl)acrylate]",inhibition at 64 µM,tyrosinase [1]; [6],19 ± 0.2%
"C=CCc1ccc(OC(=O)/C=C/c2ccc(F)cc2)c(OC)c1 [c10, 4-allyl-2-methoxyphenyl (E)-3-(4-fluorophenyl)acrylate]",inhibition at 64 µM,tyrosinase [1]; [6],17 ± 1%
"C=CCc1ccc(OC(=O)/C=C/c2ccccc2Cl)c(OC)c1 [c5, 4-allyl-2-methoxyphenyl (E)-3-(2-chlorophenyl)acrylate]",inhibition at 64 µM,tyrosinase [1]; [6],29 ± 3%
"C=CCc1ccc(OC(=O)/C=C/c2ccccc2Br)c(OC)c1 [c11, 4-allyl-2-methoxyphenyl (E)-3-(2-bromophenyl)acrylate]",inhibition at 64 µM,tyrosinase [1]; [6],10 ± 0.4%
"C=CCc1ccc(OC(=O)/C=C/c2ccc(C)cc2)c(OC)c1 [c4, 4-allyl-2-methoxyphenyl (E)-3-(p-tolyl)acrylate]",inhibition at 64 µM,tyrosinase [1]; [6],15 ± 1%
"C=CCc1ccc(OC(=O)/C=C/c2cccc(Cl)c2)c(OC)c1 [c6, 4-allyl-2-methoxyphenyl (E)-3-(3-chlorophenyl)acrylate]",inhibition at 64 µM,tyrosinase [1]; [6],17 ± 2%
"C=CCc1ccc(OC(=O)/C=C/c2cccc(Br)c2)c(OC)c1 [c12, 4-allyl-2-methoxyphenyl (E)-3-(3-bromophenyl)acrylate]",inhibition at 64 µM,tyrosinase [1]; [6],3 ± 0.8%
"C=CCc1ccc(OC(=O)/C=C/c2cccc(C)c2)c(OC)c1 [c3, 4-allyl-2-methoxyphenyl (E)-3-(m-tolyl)acrylate]",inhibition at 64 µM,tyrosinase [1]; [6],39 ± 3%
"C=CCc1ccc(OC(=O)/C=C/c2ccc(OC)cc2)c(OC)c1 [c21, 4-allyl-2-methoxyphenyl (E)-3-(4-methoxyphenyl)acrylate]",inhibition at 64 µM,tyrosinase [1]; [6],7 ± 0.9%
"C=CCc1ccc(OC(=O)/C=C/c2cccc(O)c2)c(OC)c1 [c14, 4-allyl-2-methoxyphenyl (E)-3-(3-hydroxyphenyl)acrylate]",inhibition at 64 µM,tyrosinase [1]; [6],67.6%
"C=CCc1ccc(OC(=O)/C=C/c2cccc([N+](=O)[O-])c2)c(OC)c1 [c17, 4-allyl-2-methoxyphenyl (E)-3-(3-nitrophenyl)acrylate]",inhibition at 64 µM,tyrosinase [1]; [6],9 ± 0.8%
"C=CCc1ccc(OC(=O)/C=C/c2ccc3c(c2)OCO3)c(OC)c1 [c29, 4-allyl-2-methoxyphenyl (E)-3-(benzo[d][1,3]dioxol-5-yl)acrylate]",inhibition at 64 µM,tyrosinase [1]; [6],4 ± 1%
"C=CCc1ccc(OC(=O)/C=C/c2cccc(OC)c2)c(OC)c1 [c20, 4-allyl-2-methoxyphenyl (E)-3-(3-methoxyphenyl)acrylate]",inhibition at 64 µM,tyrosinase [1]; [6],3 ± 0.1%
"C=CCc1ccc(OC(=O)/C=C/c2cccc(F)c2)c(OC)c1 [c9, 4-allyl-2-methoxyphenyl (E)-3-(3-fluorophenyl)acrylate]",inhibition at 64 µM,tyrosinase [1]; [6],17 ± 3%
"C=CCc1ccc(OC(=O)/C=C/c2ccccc2F)c(OC)c1 [c8, 4-allyl-2-methoxyphenyl (E)-3-(2-fluorophenyl)acrylate]",inhibition at 64 µM,tyrosinase [1]; [6],17 ± 3%
